Reference: publication PMC6856039 (Investigational New Drugs, 2019)

Test system: Japanese patients with advanced EGFR mutation-positive NSCLC
Test: Phase I study: dose-limiting toxicities, adverse drug reactions, tolerability
Assay type: in vivo, human
Description: This was an open-label, non-randomized, dose escalation phase I study conducted between December 14, 2015 and July 7, 2016 at 12 centers in Japan. The study was conducted in three phases (dose escalation phase, expansion phase, and extension phase), and the design is shown in Supplementary Fig. 1 (Online Resource 1). […] In patients who received the BID regimen, the administration interval was ≥10 h.
The first phase was the dose escalation phase conducted according to a 3 + 3 design, with a minimum of three patients treated at each dose level. […] The dosing rationale was derived from a 4-weeks repeated oral-dose toxicology study in monkeys. […] If none of the initial three patients treated within a dose level experienced a dose-limiting toxicity (DLT) during Cycle 1, the dose was escalated to the next level. […] If none of the three additional patients experienced DLTs after all of them completed Cycle 1, the dose was escalated to the next level. If at least one of the additional three patients developed a DLT, then the dose escalation was stopped and at least six evaluable patients were enrolled at the previous dose level to establish the maximum tolerated dose (MTD). The maximum dose level was defined as Dose Level 9 (150 mg/day). Based on safety and PK results, the dosing schedule could be changed to a BID regimen.
AEs were evaluated and graded according to the National Cancer Institute Common Terminology Criteria for Adverse Events Version 4.03. DLTs were also evaluated and defined as hematologic toxicity (Grade 4 neutropenia lasting >7 days, Grade 4 thrombocytopenia or Grade 3 thrombocytopenia associated with bleeding and requiring blood transfusion, or febrile neutropenia) or non-hematologic toxicity (Grade ≥3 nausea/vomiting uncontrolled by aggressive antiemetic treatment, Grade ≥3 diarrhea lasting >48 h and unresponsive to treatment, Grade ≥3 aspartate aminotransferase/alanine aminotransferase lasting >7 days, corneal disorder worsening by ≥1 grade, or Grade ≥3 other non-hematological toxicity).

For `C=CC(=O)N[C@H]1CCc2c(-c3cnc4ccccc4c3)c3c(N)ncnc3n2C1` [TAS-121], the “ALT increased, ≥G3” value (4 mg/day QD, N = 29) was 0 n, the “AST increased, ≥G3” value (4 mg/day QD, N = 29) was 0 n and the “Decreased appetite, any grade” value (4 mg/day QD, N = 29) was 0 n. The “Decreased appetite, ≥G3” value (4 mg/day QD, N = 29) was 0 n, the “Diarrhea, any grade” value (4 mg/day QD, N = 29) was 6 n and the “Diarrhea, ≥G3” value (4 mg/day QD, N = 29) was 0 n. The “Dry skin, ≥G3” value (4 mg/day QD, N = 29) was 0 n, the “Hemoglobin decreased, ≥G3” value (4 mg/day QD, N = 29) was 0 n and the “Hypoalbuminemia, ≥G3” value (4 mg/day QD, N = 29) was 0 n. The “Malaise, ≥G3” value (4 mg/day QD, N = 29) was 0 n, the “Nausea, ≥G3” value (4 mg/day QD, N = 29) was 0 n and the “Pruritus, ≥G3” value (4 mg/day QD, N = 29) was 0 n. For the same molecule, the “Pyrexia, ≥G3” value (4 mg/day QD, N = 29) was 0 n, the “Rash, ≥G3” value (4 mg/day QD, N = 29) was 0 n and the “Stomatitis, ≥G3” value (4 mg/day QD, N = 29) was 0 n. The “Urticaria, ≥G3” value (4 mg/day QD, N = 29) was 0 n, the “Vomiting, ≥G3” value (4 mg/day QD, N = 29) was 0 n and the “WBC decreased, ≥G3” value (4 mg/day QD, N = 29) was 0 n. For the same molecule, the “proportion of patients whose dose was decreased” value (8 mg/day BID (MTD) group, 7/38) was 18.4%, the “proportion of patients whose treatment was interrupted” value (8 mg/day BID (MTD) group, 17/38) was 44.7% and the “incidence of discontinuation due to ADRs” value (8 mg/day BID (MTD), 3/38) was 7.9%. For the same molecule, the “AST increased, ≥G3” value (8 mg/day BID, N = 38) was 0 n, the “Decreased appetite, ≥G3” value (8 mg/day BID, N = 38) was 0 n and the “Dry skin, ≥G3” value (8 mg/day BID, N = 38) was 0 n. The “Hypoalbuminemia, ≥G3” value (8 mg/day BID, N = 38) was 0 n, the “Malaise, ≥G3” value (8 mg/day BID, N = 38) was 0 n and the “Nausea, ≥G3” value (8 mg/day BID, N = 38) was 0 n. The “Other embolic and thrombotic events, ≥G3” value (8 mg/day BID, N = 38) was 0 n, the “Pruritus, ≥G3” value (8 mg/day BID, N = 38) was 0 n and the “Pyrexia, ≥G3” value (8 mg/day BID, N = 38) was 0 n. For the same molecule, the “Stomatitis, ≥G3” value (8 mg/day BID, N = 38) was 0 n, the “WBC decreased, ≥G3” value (8 mg/day BID, N = 38) was 0 n and the “ALT increased, ≥G3” value (8 mg/day QD, N = 38) was 0 n. For the same molecule, the “AST increased, ≥G3” value (8 mg/day QD, N = 38) was 0 n, the “Decreased appetite, ≥G3” value (8 mg/day QD, N = 38) was 0 n and the “Dry skin, ≥G3” value (8 mg/day QD, N = 38) was 0 n. The “Embolic and thrombotic events, any grade” value (8 mg/day QD, N = 38) was 6 n, the “Hypoalbuminemia, ≥G3” value (8 mg/day QD, N = 38) was 0 n and the “Interstitial lung disease, ≥G3” value (8 mg/day QD, N = 38) was 0 n. For the same molecule, the “Malaise, ≥G3” value (8 mg/day QD, N = 38) was 0 n, the “Nausea, any grade” value (8 mg/day QD, N = 38) was 5 n and the “Nausea, ≥G3” value (8 mg/day QD, N = 38) was 0 n. For the same molecule, the “Other embolic and thrombotic events, ≥G3” value (8 mg/day QD, N = 38) was 0 n, the “Pruritus, ≥G3” value (8 mg/day QD, N = 38) was 0 n and the “Rash maculo-papular, any grade” value (8 mg/day QD, N = 38) was 11 n. The “Stomatitis, ≥G3” value (8 mg/day QD, N = 38) was 0 n, the “Urticaria, any grade” value (8 mg/day QD, N = 38) was 5 n and the “Urticaria, ≥G3” value (8 mg/day QD, N = 38) was 0 n. The “Vomiting, ≥G3” value (8 mg/day QD, N = 38) was 0 n, the “WBC decreased, any grade” value (8 mg/day QD, N = 38) was 5 n and the “WBC decreased, ≥G3” value (8 mg/day QD, N = 38) was 0 n. For the same molecule, the “proportion of patients whose dose was decreased” value (10 mg/day QD (MTD) group, 7/18) was 38.9%, the “proportion of patients whose treatment was interrupted” value (10 mg/day QD (MTD) group, 12/18) was 66.7% and the “incidence of discontinuation due to ADRs” value (10 mg/day QD (MTD), 2/18) was 11.1%. The “AST increased, ≥G3” value (10 mg/day QD, N = 18) was 0 n, the “Decreased appetite, ≥G3” value (10 mg/day QD, N = 18) was 0 n and the “Diarrhea, ≥G3” value (10 mg/day QD, N = 18) was 0 n. The “Dry skin, ≥G3” value (10 mg/day QD, N = 18) was 0 n, the “Embolic and thrombotic events, any grade” value (10 mg/day QD, N = 18) was 5 n and the “Hypoalbuminemia, ≥G3” value (10 mg/day QD, N = 18) was 0 n. The “Interstitial lung disease, any grade” value (10 mg/day QD, N = 18) was 0 n, the “Interstitial lung disease, ≥G3” value (10 mg/day QD, N = 18) was 0 n and the “Malaise, ≥G3” value (10 mg/day QD, N = 18) was 0 n. The “Nausea, ≥G3” value (10 mg/day QD, N = 18) was 0 n, the “Platelet count decreased, any grade” value (10 mg/day QD, N = 18) was 12 n and the “Pruritus, ≥G3” value (10 mg/day QD, N = 18) was 0 n. The “Pyrexia, ≥G3” value (10 mg/day QD, N = 18) was 0 n, the “Rash maculo-papular, any grade” value (10 mg/day QD, N = 18) was 0 n and the “Rash maculo-papular, ≥G3” value (10 mg/day QD, N = 18) was 0 n. The “Stomatitis, ≥G3” value (10 mg/day QD, N = 18) was 0 n, the “Urticaria, any grade” value (10 mg/day QD, N = 18) was 6 n and the “WBC decreased, any grade” value (10 mg/day QD, N = 18) was 0 n. The “WBC decreased, ≥G3” value (10 mg/day QD, N = 18) was 0 n, the “ALT increased, any grade” value (12 mg/day BID, N = 5) was 0 n and the “ALT increased, ≥G3” value (12 mg/day BID, N = 5) was 0 n. For the same molecule, the “AST increased, any grade” value (12 mg/day BID, N = 5) was 0 n, the “AST increased, ≥G3” value (12 mg/day BID, N = 5) was 0 n and the “Decreased appetite, ≥G3” value (12 mg/day BID, N = 5) was 0 n. The “Dermatological toxicity, ≥G3” value (12 mg/day BID, N = 5) was 0 n, the “Dry skin, any grade” value (12 mg/day BID, N = 5) was 0 n and the “Dry skin, ≥G3” value (12 mg/day BID, N = 5) was 0 n. The “Embolic and thrombotic events, any grade” value (12 mg/day BID, N = 5) was 0 n, the “Embolic and thrombotic events, ≥G3” value (12 mg/day BID, N = 5) was 0 n and the “Hypoalbuminemia, ≥G3” value (12 mg/day BID, N = 5) was 0 n. The “Malaise, ≥G3” value (12 mg/day BID, N = 5) was 0 n, the “Nausea, ≥G3” value (12 mg/day BID, N = 5) was 0 n and the “Other embolic and thrombotic events, any grade” value (12 mg/day BID, N = 5) was 0 n. For the same molecule, the “Other embolic and thrombotic events, ≥G3” value (12 mg/day BID, N = 5) was 0 n, the “Pruritus, any grade” value (12 mg/day BID, N = 5) was 0 n and the “Pruritus, ≥G3” value (12 mg/day BID, N = 5) was 0 n. For the same molecule, the “Pulmonary embolism, any grade” value (12 mg/day BID, N = 5) was 0 n, the “Pulmonary embolism, ≥G3” value (12 mg/day BID, N = 5) was 0 n and the “Pyrexia, ≥G3” value (12 mg/day BID, N = 5) was 0 n. The “Rash maculo-papular, ≥G3” value (12 mg/day BID, N = 5) was 0 n, the “Rash, ≥G3” value (12 mg/day BID, N = 5) was 0 n and the “Stomatitis, ≥G3” value (12 mg/day BID, N = 5) was 0 n.
